Measured values as given in patent US9873724B2, “Pro-angiogenic peptides and peptide conjugates” (Yissum Research Development Company of the Hebrew …, priority 2013, dated 2018).
Several values for one entry are separate records, joined by “and”; a condition that tells them apart may be missing. Equal values may be shown once. Square brackets hold non-standard residues; d marks the D form. Ends that are not written are not given here. * marks the point of attachment. fluorescein = fluorescein moiety coupled to a lysine residue (K-Flu); Tyr(3,5-I2) = N[C@@H](Cc1cc(I)c(O)c(I)c1)C(=O)O; Phe(4-Br) = N[C@@H](Cc1ccc(Br)cc1)C(=O)O; hArg = N=C(N)NCCCC[C@H](N)C(=O)O; Myristoyl = CCCCCCCCCCCCCC(=O)*; Lauroyl = CCCCCCCCCCCC(=O)*; Decanoyl = CCCCCCCCCC(=O)*; Nle = CCCC[C@H](N)C(=O)O; Octanoyl = CCCCCCCC(=O)*; Hexanoyl = CCCCCC(=O)*

Legend:
[1] = test system: mouse aortic rings; test: Aortic ring assay ex-vivo (capillary sprouting from mouse aortic rings in collagen; repeated with VEGF); format: cell-based; parameters: Capillary length 10 μM (10 μM) / Capillary length 20 μM / Capillary length 10 μM: unit not given here; conditions: for Capillary length 10 μM (10 μM) / Capillary length 10 μM: peptide 10 μM; for Capillary length 10 μM (10 μM) / Capillary length 20 μM / Capillary length 10 μM: rings fixed after two weeks; for Capillary length 20 μM: peptide 20 μM; for effect of peptide together with VEGF (in words): 10 μM peptide with VEGF; for Average capillary length / Fold vs vehicle: 10 μM peptide, alone or together with VEGF; for capillary / vessel formation (in words): aortic ring assay, FIGS. 1A-1C and 2A-2C; for Fold vs vehicle: capillary length
Procedure: Thoracic aortas were dissected from 7- to 8-week-old male SABRA mice. The aortas were immediately transferred to Petri dishes containing BIO-MPM-1. The adventitia and small vessels around the aorta were carefully removed under a dissecting microscope, and transverse cuts of 0.75 mm were made. The resulting aortic rings were extensively rinsed and incubated overnight in BIO-MPM-1 containing penicillin-streptomycin. Subsequently, the rings were embedded in 50 μl collagen mix (7 parts collagen, 1 part 10× Eagle minimal essential medium, MEM, and 2 parts 0.15 M sodium bicarbonate) in 96-well plates (Nunc, Rochester, N.Y.). Solidification of the collagen solution was achieved by raising the pH to neutral and the temperature to 37° C. 150 μl BIO-MPM-1 containing penicillin-streptomycin and the tested factors or peptides) was added to the embedded rings, and the plates were incubated at 37° C. in a humidified 10% CO2 atmosphere. Medium containing factors and/or peptides was refreshed at days 4 and 8. After two weeks, the rings were fixed with 4% formaldehyde for 24 hours, followed by staining with crystal violet (0.02%) dissolved in ethanol and extensive washing to remove excessive stain. The effect of factors and peptides was examined in 4 wells (4 rings of mouse aortic rings) per assay. Micrographs of representative rings were taken using a digital camera (Nikon, Tokyo, Japan). Morphometric analysis of sprouting was performed manually using Image-Pro 4.5 software (Media Cybernetics, Silver Spring, Md.) according to Nissanov et al. (Lab Invest. 1995; 73:734-739). Nonstained rings were subjected to paraffin sections and hematoxylin and eosin (H&E) staining.
FIGS. 1A-1C represents aortic ring capillary length and FIGS. 2A-2C aortic ring capillary width. In the table: K-Flu is a Lysine residue coupled with a fluorescein moiety, 4BrPhe is 4-bromo-Phenylalanine, Dod is Dodecanoyl, Dec designates Decanoyl, Oct is Octanoyl, and Hex is Hexanoyl.
The aortic ring assay was repeated in the presence of 10 μM concentration of peptides AB-033 (SEQ ID NO: 13) and AB-034 (SEQ ID NO: 14) together with the pro-angiogenetic protein VEGF.

[2] = test system: Mice/Balb/c, hind limb ischemia model; test: Mouse hind limb ischemia/angiogenesis model; format: in vivo; conditions: 20 mg/kg IP twice weekly
Excerpt: The object of this study was to determine whether administration of the test items, peptides AB-017 (SEQ ID NO: 12) and 725-106 (positive control, SEQ ID NO: 2) can enhance angiogenesis, subsequently inducing clinical and motor function improvement in a hind limb ischemia model. The principle of the test is based on changes in perfusion rate, clinical signs and histological parameters (necrosis) following administration of the test compounds.
Each tested group included 4-7 mice per group. Intraperitoneal (i.p) injection is the preferred route of administration of the test items in this model and DMSO/PEG is used as vehicle to prepare the test item solution.
Tested peptides were dissolved in 100% DMSO. Thereafter Polyethylene glycol (PEG) 400 is added to the solution. Sterile water was used to dilute to a final concentration of 0.5% DMSO/10% PEG 400/H2O to result 2 mg/ml. The solution is prepared and divided into marked aliquots and stored at −70° C.
Species/Strain: Mice/Balb/c male˜8 weeks
Animals were housed under standard laboratory conditions, air conditioned and filtered (HEPA F6/6) with adequate fresh air supply (31 air changes/hour). Animals were kept in a climate controlled environment. Temperatures range is between 20-24° C. and RH is between 30-70% with 12 hours light and 12 hours dark cycle. Animals were housed in polyethylene cages (7/cage) measuring 35×30×15 cm, with stainless steel top grill facilitating pelleted food and drinking water in plastic bottle; bedding: steam sterilized clean paddy husk. Bedding material is changed along with the cage at least twice a week. Diet: Animals are fed ad libitum a commercial rodent diet (Teklad Certified Global 18% Protein Diet cat #: 106S8216). Animals have free access to drinking water obtained from the municipality supply. Surgical Procedure: Anesthesia: Isoflurane 1.5-3% in a mixture of O2/N2O, under spontaneous respiration. All four limbs of the animal were taped down in order to facilitate the animal for surgery. Both hind legs of the animals are shaved and disinfected. On the operated leg, the right leg in all animals, an incision was made from the inguinal area to the proximity of the knee. The femoral vein/artery/nerve were exposed. The artery is dissected free from the vein, nerve and surrounding fascia. Distal to its bifurcation with the profound femoral artery, using 6-0 silk suture the artery is ligated twice, and thereafter transected between these two points (see prox-A-group model appendix I). The surgical wound is closed with 6-0 silk and the mouse is returned to its cage. The left leg is untreated control in all animals. Exclusion criteria: Only mice, whose mean flux measurement post surgery is […] and ≦50% of the pre surgical measurement, are incorporated into the study. Mice whose mean flux measurement post surgery out of this range were excluded from the study.
[formula] Drug administration: All animals were dosed by IP administration at a dose volume of 10 ml/kg.
Tests and Evaluation: Body weight: Body weights were measured prior to surgery, prior to each dosing, and prior to necropsy. Blood flow measurement: Using a Laser Doppler apparatus (Perimed PeriScan PIM II System, Technical manual available at test facility) Blood flow was measured (operated leg & control leg) while the legs are in their natural resting position at the following time points: Before surgery (after shaving) & Post surgery (Day 0); Day 1; Day 8; Day 15; Day 22; and Day 29. Each time point for each mouse consists of three measurements. Blood flow was measured, additionally, in first 10 animals at Pre before shaving. […]

| Substance | Capillary length 10 μM (10 μM) [1] | Capillary length 20 μM [1] | Capillary length 10 μM [1] | further results |
| --- | --- | --- | --- | --- |
| 725-106: Previously disclosed EDG3 peptide, positive control; Table 2: Myr-Gly, Nle, Arg, Pro, Tyr, Asn, Ala, NH2 (Myristoyl-G[Nle]RPYNA-NH2; SMILES CCCCCCCCCCCCCC(=O)NCC(=O)N[C@@H](CCCC)C(=O)N[C@@H](CCCNC(=N)N)C(=O)N1CCC[C@H]1C(=O)N[C@@H](Cc1ccc(O)cc1)C(=O)N[C@@H](CC(N)=O)C(=O)N[C@@H](C)C(N)=O) [Peptide 725-106, reference compound] | 7,000 | 4,600 |  | Functional evaluation at day 15 (individual mouse) ([2]; function score 0 (flexing the toes) to 3 (dragging of foot), one value per mouse): 3.0; Hind limb ischemia evaluation at day 15, Average ([2]; group average of ischemic score): 2.4; Hind limb ischemia evaluation at day 15 (individual mouse) ([2]; ischemic score 0 (absence of necrosis) to 4 (total hind-limb loss), one value per mouse, listed as 106): 2.0 (2×) and 3.0 and 2.5 |
| AB-011: Table 2: Myr-Gly, Nle, Arg, Pro, Tyr, Asn, Ala, K-Flu (lysine coupled with fluorescein), NH2 (Myristoyl-G[Nle]RPYNAK(fluorescein)-NH2) | 2500 | 5000 |  |  |
| AB-013: Table 2: Myr-Gly, Nle, Arg, Pro, Tyr, Asn, DAla, NH2 (Myristoyl-G[Nle]RPYN[dA]-NH2; SMILES CCCCCCCCCCCCCC(=O)NCC(=O)N[C@@H](CCCC)C(=O)N[C@@H](CCCNC(=N)N)C(=O)N1CCC[C@H]1C(=O)N[C@@H](Cc1ccc(O)cc1)C(=O)N[C@@H](CC(N)=O)C(=O)N[C@H](C)C(N)=O) | 8700 | 900 |  |  |
| AB-015: Table 2: Acetyl-Gly-, Arg, Pro, Tyr, NH2 (Ac-GRPY-NH2) | 1,000 | 1,700 |  |  |
| AB-018: Table 2: Myr-Gly, Nle, Arg, Pro, Tyr, Asn, NH2 (Myristoyl-G[Nle]RPYN-NH2; SMILES CCCCCCCCCCCCCC(=O)NCC(=O)N[C@@H](CCCC)C(=O)N[C@@H](CCCNC(=N)N)C(=O)N1CCC[C@H]1C(=O)N[C@@H](Cc1ccc(O)cc1)C(=O)N[C@@H](CC(N)=O)C(N)=O) | 12,600 | 10,200 |  |  |
| AB-020: Table 2: Dod-Gly (Dodecanoyl), Nle, Arg, Pro, Tyr (Lauroyl-G[Nle]RPY) | 1,900 | 2,700 | 5,600 |  |
| AB-021: Table 2: Dec-Gly (Decanoyl), Nle, Arg, Pro, Tyr (Decanoyl-G[Nle]RPY) | 590 | 3,200 | 3,940 |  |
| AB-022: Table 2: Oct-Gly (Octanoyl), Nle, Arg, Pro, Tyr (Octanoyl-G[Nle]RPY) | 380 | 1,700 | 2,170 |  |
| AB-023: Table 2: Hex-Gly (Hexanoyl), Nle, Arg, Pro, Tyr (Hexanoyl-G[Nle]RPY) | 430 | 320 | 1,700 |  |
| AB-031: Table 2: Myr-Gly, Nle, Arg, Pro, 4BrPhe (Myristoyl-G[Nle]RP[Phe(4-Br)]) |  |  | 1,840 |  |
| Myr-Gly-Arg-Pro-Tyr-NH2 (Myristoyl-GRPY-NH2; SMILES CCCCCCCCCCCCCC(=O)NCC(=O)N[C@@H](CCCNC(=N)N)C(=O)N1CCC[C@H]1C(=O)N[C@@H](Cc1ccc(O)cc1)C(N)=O) [AB-016] | 8,700 | 14,500 |  |  |
| Myr-Gly-Nle-Arg-Pro-35dITyr-NH2 (Myristoyl-G[Nle]RP[Tyr(3,5-I2)]-NH2; SMILES CCCCCCCCCCCCCC(=O)NCC(=O)N[C@@H](CCCC)C(=O)N[C@@H](CCCNC(=N)N)C(=O)N1CCC[C@H]1C(=O)N[C@@H](Cc1cc(I)c(O)c(I)c1)C(N)=O) [AB-033] | 3,570 | 3,800 |  | effect of peptide together with VEGF (in words) [1]: synergistic effect; Average capillary length [1]: 4941; capillary / vessel formation (in words) [1]: induce massive capillary formation; Fold vs vehicle [1]: 3.6 |
| Myr-Gly-Nle-hArg-Pro-Tyr-NH2 (Myristoyl-G[Nle][hArg]PY-NH2; SMILES CCCCCCCCCCCCCC(=O)NCC(=O)N[C@@H](CCCC)C(=O)N[C@@H](CCCCNC(=N)N)C(=O)N1CCC[C@H]1C(=O)N[C@@H](Cc1ccc(O)cc1)C(N)=O) [AB-034] | 9,570 | 10,780 | 9,700 | effect of peptide together with VEGF (in words) [1]: synergistic effect; Average capillary length [1]: 3062; capillary / vessel formation (in words) [1]: induce massive capillary formation; Fold vs vehicle [1]: 2.2 |
| VEGF |  |  |  | Average capillary length [1]: 3221; Fold vs vehicle [1]: 2.4 |
